The structures appear in SMILES notation.

The subject of assay [1] is SARS-COV-2. Description: Summary of activity on the SARS-COV-2 infectious models. To be noted: summary table. Format: cell-based. The method, then: The inhibitory activity of the compounds of the invention on the infection by SARS-COV-2 was evaluated in vitro by infection of three relevant lines for the study of this pathogen: the green monkey line VeroE6 (immortalized kidney epithelium, ATCC #CRL-1586), the A549-ACE2 line produced by transfection of the ACE2 receptor in the A549 line (pulmonary epithelial carcinoma; ATCC #CCL-185), commercial primary bronchial epithelium cells (Mucilair Epithelix).
The infection tests are carried out by preincubating 4×10^4 VeroE6 or A549-ACE2 cells, cultivated in a 96-well plate, with the indicated concentrations of compounds for 1 hour. The cells are cultivated in a 5% CO2 atmosphere in a Dulbecco's modified Eagle's medium (DMEM) comprising 2% calf serum and 1% penicillin/streptomycin. The cells were then exposed to the SARS-COV-2 virus, BetaCoV/France/IDF0371/2020 (MOI=0.01) for 2 hours in the presence of the compounds before elimination of the innoculum, washing and culturing the cells in the presence of the compounds. 24 h after the viral challenge, the infection is quantified by amplification of the viral RNA by qRT-PCR using the Luna Universal One-Step RT-PCR kit. The values (DCT) are normalized by the GAPDH mRNA. The values represented are averages of triplicates+standard deviation. The control conditions were carried out by incubating the cells in the presence of DMSO, the solvent used for the solubilization of the compounds tested. The volumes of DMSO used under these conditions correspond to the volumes provided by the compounds under the test conditions.

For assay [2], the target named is FLT3 (Homo sapiens (Human), UniProt P36888). The assay is described as follows: IC50 determination on kinase FLT3 (SelectScreen). It is filed as biochemical. As to conditions: 10 concentrations between 100 nM and 0.00495 nM. The method, then: FIG. 2: Determination of the IC50 of compounds 1, 2 and 3 with respect to the inhibition of the kinase Axl and of the kinase FLT3. 10 concentrations of the compound were prepared by serial dilutions. The compounds are screened in DMSO at 1% final. The kinases were diluted in a concentrated concentration twice in kinase buffer. All the ATP solutions were diluted in a 4-fold concentrated working concentration (50 mM HEPES pH 7.5, 0.01% BRIJ-35, 10 mM MgCl2, 1 mM EGTA). Each compound was incubated at 10 concentrations between 100 nM and 0.00495 nM in order to calculate the IC50. The IC50 are indicated: a) results of compound 1; b) results of compound 2; c) results of compound 3.
The inhibitory activity of the compounds on a panel of kinases including, inter alia, AXL and FLT3 was evaluated by Thermo Fisher Scientific using Z′-LYTE® and Adapta® Select Screen technology.
The fluorescence-based biochemical test uses coupled enzymes and is based on the difference in sensitivity of the phosphorylated and non-phosphorylated peptides to proteolytic cleavage. The peptide substrate is labeled with 2 fluorophores—one at each end—allowing fluorescence transfer (FRET).
To calculate the IC50 inhibition of Axl and FLT3 by the compounds of the invention, 10 concentrations of each compound 1, 2 and 3 were prepared by 1/3 serial dilutions from the starting concentration. The Axl or FLT3 kinases were diluted at a two-fold concentration in kinase buffer. All the ATP solutions are diluted in a 4-fold working concentration (50 mM HEPES PH 7.5, 0.01% BRIJ-35, 10 mM MgCl2, 1 mM EGTA).
Each compound is incubated at 10 concentrations between 100 nM and 0.00495 nM in order to calculate the IC50.

In assay [3] the test system is SARS-COV-2. The assay is described as follows: Anti-SARS-COV-2 activity in primary human bronchial epithelium model (MucilAir). It is filed as cell-based. As to conditions: 1.25 μM, 24 hours, qRT-PCR.
Assay [4] has as its system WNV virus, Kunjin strain. The assay is described as follows: Antiviral activity against the WNV virus, Kunjin strain in HeLa cells. It is filed as cell-based. To be noted: summary table.

FLT3, sequence (P36888 27-993): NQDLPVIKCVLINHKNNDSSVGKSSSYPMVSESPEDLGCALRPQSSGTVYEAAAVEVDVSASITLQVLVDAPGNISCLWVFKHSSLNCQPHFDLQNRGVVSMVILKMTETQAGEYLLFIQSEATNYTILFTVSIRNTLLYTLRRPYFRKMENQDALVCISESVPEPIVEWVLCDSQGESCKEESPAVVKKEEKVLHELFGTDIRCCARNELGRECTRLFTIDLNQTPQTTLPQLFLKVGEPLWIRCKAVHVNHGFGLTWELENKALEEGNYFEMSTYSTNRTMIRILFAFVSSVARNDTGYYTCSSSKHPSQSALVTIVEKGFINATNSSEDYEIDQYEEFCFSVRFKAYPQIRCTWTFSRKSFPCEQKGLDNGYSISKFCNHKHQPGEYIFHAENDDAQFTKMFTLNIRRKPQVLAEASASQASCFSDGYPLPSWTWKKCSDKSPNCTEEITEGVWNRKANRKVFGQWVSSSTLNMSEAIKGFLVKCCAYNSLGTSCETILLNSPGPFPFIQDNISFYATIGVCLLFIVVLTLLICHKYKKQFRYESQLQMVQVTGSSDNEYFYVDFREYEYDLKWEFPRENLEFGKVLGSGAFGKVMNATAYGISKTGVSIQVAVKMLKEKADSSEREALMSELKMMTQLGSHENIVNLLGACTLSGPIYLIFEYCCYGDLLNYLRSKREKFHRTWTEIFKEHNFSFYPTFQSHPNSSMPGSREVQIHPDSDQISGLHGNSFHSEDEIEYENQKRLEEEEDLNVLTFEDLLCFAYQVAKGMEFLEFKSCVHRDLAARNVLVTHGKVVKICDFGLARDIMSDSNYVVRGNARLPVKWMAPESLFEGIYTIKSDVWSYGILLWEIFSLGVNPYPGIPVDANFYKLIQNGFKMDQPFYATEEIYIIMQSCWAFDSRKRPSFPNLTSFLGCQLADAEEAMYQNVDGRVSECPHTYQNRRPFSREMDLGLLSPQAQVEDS

For orientation: IC50 means the concentration that inhibits the measured activity by half. Low values mean inhibition by little substance, high ones a need for much substance. In the case of `CN1CCN(Cc2cccc(-c3cnc4[nH]cc(-c5cc(NC(=O)Nc6ccccc6)ccc5F)c4c3)c2)CC1` [Compound 3], the “active on infectious model SARS-COV-2” value in assay [1] is given as “ACTIVE”. In assay [2], this compound yielded a half-maximal inhibitory concentration (IC50) of 48.2 nM.

Regarding `CN1CCN(Cc2cccc(-c3cnc4[nH]cc(-c5cc(CNCCc6ccc(O)cc6)ccc5F)c4c3)c2)CC1` [Compound 1], in assay [3], the “infection of the primary bronchial epithelium by SARS-COV-2” value was “inhibits the infection”. Also, the “active on infectious model KUNV” value in assay [4] is reported as “ACTIVE”. In addition, in assay [1], the “active on infectious model SARS-COV-2” value is reported as “ACTIVE”. For the same compound, in assay [2], the half-maximal inhibitory concentration (IC50) stood at 2.5 nM.

For `CN1CCN(Cc2cccc(-c3cnc4[nH]cc(-c5cc(CNCc6ccccc6)ccc5F)c4c3)c2)CC1` [Compound 2], the “active on infectious model KUNV” value in assay [4] is “ACTIVE”. Moreover, the “active on infectious model SARS-COV-2” value in assay [1] is “ACTIVE”. In assay [2], this compound gave a half-inhibitory concentration (IC50) of 2.33 nM.

The record behind these values is US20240293400A1, “NOVEL AZAINDOLE DERIVATIVES AS ANTIVIRAL AGENTS” (Centre National de la Recherche Scientifique, priority 2021, published 2024).
